Patent US10781467B2, “3-epimerase and polynucleotide encoding same” (priority 2016, dated 2020)

Key:
[1] = system: 3-epimerase; test: Metal dependence of 3-epimerase; assay type: biochemical, Thermogemmatispora carboxidivorans; conditions: 1 mM metal ion; for Relative activity (%): EDTA-treated 3-epimerase 0.04 U/mL, 10% (w/v) fructose, Tris pH 7.5, 60° C., 20 minutes, None = 100; for effect of metal ion on enzyme activity: fructose as substrate
Description: In the current experimental examples, the enzyme activity is measured using fructose and sorbose as substrates. […] The sodium phosphate buffer solution containing fructose or sorbose is prepared by dissolving fructose or sorbose in a sodium phosphate buffer solution pH 7-8 to give a concentration of 60-70% (w/v). The sodium phosphate buffer solution containing fructose or sorbose is continuously added to a bioreactor maintained at 60° C. For the purpose of facilitating the comparison of enzyme activities, one unit of allulose-3-epimerase is defined as an amount of allulose-3-epimerase required to produce […] of D-allulose per minute at pH 7.5 and 60° C.; and one unit of tagatose-3-epimerase is defined as an amount of tagatose-3-epimerase required to produce […] of D-tagatose per minute at pH 7.5 and 60° C. The concentrations of fructose, D-allulose, sorbose, and D-tagatose are determined by high performance liquid chromatography with a BP-100 calcium ion […] column and an RI detector. The column temperature is 80° C., and the mobile phase is ultrapure water with a flow rate of 0.5 mL/min. In Example 3, in order to investigate the effect of metal ions on the 3-epimerase, the effect on the activity of 3-epimerase was measured with fructose as a substrate in the presence of various metal ions. The measurement was carried out by treating 3-epimerase with EDTA, and then adding 1 mM of various metal ions shown in Table 1 below to the 3-epimerase solution. The reaction catalyzed by 3-epimerase was carried out in a 50 mM Tris buffer pH 7.5 at 60° C. for 20 minutes, where the Tris buffer contained 0.04 U/mL 3-epimerase and 10% (w/v) fructose. The reaction solution was further heated at 100° C. for 15 minutes to terminate the reaction, and then the activity of the 3-epimerase was measured.

[2] = system: 3-epimerase; test: Specificity of 3-epimerase for substrate; assay type: biochemical, Thermogemmatispora carboxidivorans; conditions: for 3-epimerase activity for substrate: 10 mM monosaccharide; for Relative activity (%): 0.04 U/ml 3-epimerase, 10 mM monosaccharide as substrate, pH 7.5, 60° C., 20 minutes
Description: In the current experimental examples, the enzyme activity is measured using fructose and sorbose as substrates. In order to measure the enzyme activity, 3-epimerase is mixed with 50 mM sodium phosphate buffer solution (pH 7.5) containing 10% fructose or sorbose, reacted at 60° C. for 20 minutes, and then heated at 100° C. for 15 minutes to terminate the reaction. The sodium phosphate buffer solution containing fructose or sorbose is prepared by dissolving fructose or sorbose in a sodium phosphate buffer solution pH 7-8 to give a concentration of 60-70% (w/v). The sodium phosphate buffer solution containing fructose or sorbose is continuously added to a bioreactor maintained at 60° C. For the purpose of facilitating the comparison of enzyme activities, one unit of allulose-3-epimerase is defined as an amount of allulose-3-epimerase required to produce […] of D-allulose per minute at pH 7.5 and 60° C.; and one unit of tagatose-3-epimerase is defined as an amount of tagatose-3-epimerase required to produce […] of D-tagatose per minute at pH 7.5 and 60° C. The concentrations of fructose, D-allulose, sorbose, and D-tagatose are determined by high performance liquid chromatography with a BP-100 calcium ion […] column and an RI detector. The column temperature is 80° C., and the mobile phase is ultrapure water with a flow rate of 0.5 mL/min.
The reaction catalyzed by 3-epimerase was carried out in a 50 mM sodium phosphate buffer solution pH 7.5 at 60° C. for 20 minutes, where the sodium phosphate buffer solution contained 0.04 U/ml 3-epimerase and 10 mM of various individual monosaccharides shown in Table 2 below. Each reaction solution was heated at 100° C. for 15 minutes to terminate the reaction, and then the enzyme activity of the 3-epimerase in each reaction solution was measured.

[3] = in humans; cited from earlier work

| SMILES | Relative activity (%) [1] | 3-epimerase activity for substrate [2] | Relative activity (%) [2] | effect of metal ion on enzyme activity [1] | absorption rate [3] |
| --- | --- | --- | --- | --- | --- |
| [Na+] [Na^+] | 120% | – | – | – | – |
| [K+] [K^+] | 113% | – | – | – | – |
| O=C(CO)[C@@H](O)[C@H](O)[C@H](O)CO [Fructose, D-fructose] | – | active | 63.9% | – | – |
| [Mn+2] [Mn^2+] | 168% | – | – | enhance the enzyme activity | – |
| [Zn+2] [Zn^2+] | 0% | – | – | inhibit the enzyme activity | – |
| O=C(CO)[C@H](O)[C@@H](O)[C@H](O)CO [Sorbose, D-sorbose] | – | active | 21% | – | – |
| [Mg+2] [Mg^2+] | 130% | – | – | enhance the enzyme activity | – |
| [Co+2] [Co^2+] | 170% | – | – | enhance the enzyme activity | – |
| O=C(CO)[C@@H](O)[C@@H](O)[C@H](O)CO [D-tagatose] | – | active | 40.7% | – | 20 to 25% |
| [Ca+2] [Ca^2+] | 65% | – | – | – | – |
| [Cu+2] [Cu^2+] | 0% | – | – | inhibit the enzyme activity | – |
| O=C(CO)[C@H](O)[C@H](O)[C@H](O)CO [D-allulose, D-ribo-2-hexulose] | – | active | 100% | – | – |
